Assay results taken from ChEMBL document CHEMBL3885861, “Open TG-GATES”.

Organism: Rattus norvegicus
Experiment: Open TG-GATES - Regimen: Single
Assay type: toxicity, organism-based, Sprague-Dawley
Parameters: regimen Single, gender Male, age 6 weeks
Settings: in vivo, po, 0 mg/kg, route gavage, dose level Control; for KIDNEY_L / KIDNEY_R / KIDNEY_TOTAL: tissue Kidney; for LIVER: tissue Liver; for ALP / ALT / AST / BUN / CRE / Ca / DBIL / GLC / IP / K / LDH / Na / PL / RALB / TBIL / TC / TP / gamma-GTP / TG: tissue Plasma

## O=C(O)c1cn(C2CC2)c2cc(N3CCNCC3)c(F)cc2c1=O [CIPROFLOXACIN]
3 h
  TERMINAL_BW: 180.9 g
  KIDNEY_L: 0.8 g
  KIDNEY_R: 0.9 g
  KIDNEY_TOTAL: 1.7 g
  LIVER: 8.3 g
  ALP: 1050.6 IU/L
  ALT: 38.4 IU/L
  AST: 70.6 IU/L
  BUN: 13.8 mg/dL
  CRE: 0.4 mg/dL
  Ca: 10.8 mg/dL
  DBIL: 0.008 mg/dL
  GLC: 186.6 mg/dL
  IP: 9.5 mg/dL
  K: 4.9 meq/L
  LDH: 92.6 IU/L
  Na: 138.2 meq/L
  PL: 130.8 mg/dL
  RALB: 3.8 g/dL
  TBIL: 0.4 mg/dL
  TC: 73.6 mg/dL
  TP: 5.4 g/dL
  gamma-GTP: 1.8 IU/L
3 h, tissue Blood
  Bas: 0%
  Eos: 0.6%
  Fbg: 202.2 mg/dL
  Hb: 13 g/dL
  MCH: 21.8 pg
  MCV: 65.5 fL
  Mono: 6%
  PT: 12.5 s
  Plat: 103.5 x10_4/uL
  RBC: 598.8 x10_4/ul
  Ret: 9.9%
  WBC: 128.2 x10_2/uL
6 h
  TERMINAL_BW: 182.4 g
  KIDNEY_L: 0.9 g
  KIDNEY_R: 0.9 g
  KIDNEY_TOTAL: 1.8 g
  LIVER: 8.5 g
  ALP: 839.4 IU/L
  ALT: 36.6 IU/L
  BUN: 10.4 mg/dL
  CRE: 0.5 mg/dL
  DBIL: 0.024 mg/dL
  GLC: 186.4 mg/dL
  IP: 9.9 mg/dL
  K: 5.1 meq/L
  LDH: 103.2 IU/L
  Na: 138.2 meq/L
  PL: 136 mg/dL
  RALB: 3.7 g/dL
  TBIL: 0.4 mg/dL
  TC: 80.6 mg/dL
  TG: 42.2 mg/dL
  TP: 5.5 g/dL
  gamma-GTP: 1.4 IU/L
6 h, tissue Blood
  Bas: 0%
  Eos: 0.6%
  Fbg: 211 mg/dL
  Hb: 12.6 g/dL
  Lym: 77%
  MCH: 21.8 pg
  MCV: 66.3 fL
  Mono: 6.8%
  Neu: 15.6%
  PT: 12.5 s
  Plat: 103 x10_4/uL
  RBC: 579 x10_4/ul
  Ret: 10.8%
  WBC: 125 x10_2/uL
9 h
  TERMINAL_BW: 177.8 g
  KIDNEY_L: 0.8 g
  KIDNEY_R: 0.8 g
  KIDNEY_TOTAL: 1.7 g
  LIVER: 7.5 g
  ALP: 766 IU/L
  ALT: 32.4 IU/L
  AST: 68.4 IU/L
  BUN: 10.6 mg/dL
  CRE: 0.5 mg/dL
  Ca: 10.9 mg/dL
  DBIL: 0.056 mg/dL
  GLC: 193 mg/dL
  IP: 10.9 mg/dL
  K: 4.9 meq/L
  LDH: 92.4 IU/L
  Na: 139.2 meq/L
  PL: 120.4 mg/dL
  RALB: 3.8 g/dL
  TBIL: 0.3 mg/dL
  TC: 71.8 mg/dL
  TG: 29 mg/dL
  TP: 5.5 g/dL
  gamma-GTP: 1.4 IU/L
9 h, tissue Blood
  APTT: 17 s
  Bas: 0%
  Eos: 0.4%
  Fbg: 213.4 mg/dL
  Hb: 12.4 g/dL
  Ht: 37.5%
  Lym: 82.6%
  MCH: 21.7 pg
  MCHC: 33.1%
  MCV: 65.6 fL
  Mono: 6.8%
  Neu: 10%
  PT: 11.7 s
  Plat: 116.2 x10_4/uL
  RBC: 572.4 x10_4/ul
  Ret: 10.6%
  WBC: 115.5 x10_2/uL
24 h
  TERMINAL_BW: 194.5 g
  KIDNEY_L: 0.9 g
  KIDNEY_R: 0.9 g
  KIDNEY_TOTAL: 1.8 g
  LIVER: 9.8 g
  ALP: 1038.8 IU/L
  ALT: 47 IU/L
  AST: 74.8 IU/L
  BUN: 17.4 mg/dL
  CRE: 0.5 mg/dL
  Ca: 11.3 mg/dL
  DBIL: 0.074 mg/dL
  GLC: 187.2 mg/dL
  IP: 8.3 mg/dL
  K: 4.7 meq/L
  LDH: 96.8 IU/L
  Na: 138.8 meq/L
  PL: 157.2 mg/dL
  RALB: 4 g/dL
  TBIL: 0.3 mg/dL
  TC: 89 mg/dL
  TG: 89.4 mg/dL
  TP: 5.7 g/dL
  gamma-GTP: 1.2 IU/L
24 h, tissue Blood
  APTT: 16.4 s
  Bas: 0%
  Eos: 1%
  Fbg: 209.2 mg/dL
  Hb: 13.1 g/dL
  Lym: 80%
  MCH: 22 pg
  MCHC: 33.4%
  MCV: 65.8 fL
  Mono: 7.2%
  Plat: 103.8 x10_4/uL
  RBC: 598.2 x10_4/ul
  Ret: 9.7%
  WBC: 132.8 x10_2/uL
